The structures appear in SMILES notation. Where two headings read alike, the source gives them in different places.

Assay [1] concerns E. coli. Description: Checkerboard microdilution with sodium bicarbonate against E. coli. It counts as cell-based, Escherichia coli. The protocol: (§1) In the following experiments, bacterial cells were cultured in 96-well microtiter plates in cation-adjusted Mueller-Hinton Broth (MHB) for 18 h at 37° C. The main strains used were E. coli (K-12 BW25113) (placed in stationary incubator) and S. aureus (Newman Strain) (incubated at 250 r.p.m). Knockout strains (ΔtolcC and ΔychM) were used from the Keio knockout collection (Baba et al., Construction of Escherichia coli K-12 in-frame, single-gene knockout mutants: the Keio collection. Mol Syst Biol 2, 2006 0008, doi:10.1038/msb4100050 (2006)). For MIC determination and checkerboard analyses, Clinical & Laboratory Standards Institute (CLSI) protocol was used. […] DiSC3 loading of S. aureus cells was performed as previously described (Farha et al., Collapsing the proton motive force to identify synergistic combinations against Staphylococcus aureus. Chemistry & biology 20, 1168-1178, doi:10.1016/j.chembiol.2013.07.006 (2013)). CCCP concentration of 20 μM was used. pH adjustments were made by addition of HCl or NaOH. INT assay and ATP bioluminescence assays were performed as previously described (Farha et al., Collapsing the proton motive force to identify synergistic combinations against Staphylococcus aureus. Chemistry & biology 20, 1168-1178, doi:10.1016/j.chembiol.2013.07.006 (2013)). For chemical-genomic studies, the Keio library was grown overnight in cation-adjusted MHB broth, in 384-well plates. From these, treatment plates (25 mM sodium bicarbonate, or a sterile water control) were inoculated and grown for 15 hours at 37° C., in a stationary incubator. Data was normalized according to Mangat et al (Mangat et al., Rank ordering plate data facilitates data visualization and normalization in high-throughput screening. J Biomol Screen 19, 1314-1320, doi:10.1177/1087057114534298 (2014)), with gene products and GO terms mined from EcoCyc. The GFP promoter library (Keseler et al., EcoCyc: fusing model organism databases with systems biology. Nucleic Acids Res 41, D605-612, doi:10.1093/nar/gks1027 (2013)) was grown for 18 hours at ambient temperature with the same inoculation strategy as with the Keio collection. The analysis pipeline of Zaslaver et al (Zaslaver et al., A comprehensive library of fluorescent transcriptional reporters for Escherichia coli. Nat Methods 3, 623-628, doi:10.1038/nmeth895 (2006)) was used to generate maps of promoter activity, from which lists of promoters with increased or decreased activity were compiled.
(§2) The effect of sodium bicarbonate on the activity of various antibacterial agents was investigated. Clinical isolates of various bacteria were obtained from the American Type Culture Collection (“ATCC”) and the International Health Management Associates (“IHMA”). Fractional inhibitory concentration indices (FICIs) were determined by setting up standard checkerboard broth microdilution assays in 96-well microtiter plates with serially diluted 8 (or 10) concentrations of each drug (sodium bicarbonate and the antibacterial agent). The protocol for checkerboard analyses was based on the CLSI guidelines. Plates were incubated at 37° C. for 18 hours, and optical density was read at 600 nm. At least 3 replicates were done for each query compound.
(§3) The FIC index (FICI) is the sum of the two FICs. Chemical-chemical interactions with ΣFIC of less or equal to 0.5 were deemed synergistic.
(§4) As validation, three of the antibiotic agents were further tested with checkerboard analyses. Checkerboard broth microdilution assays were set up in 96-well microtiter plates with serially diluted 8 (or 10) concentrations of each compound (sodium bicarbonate and the antibiotic). The protocol for checkerboard analyses was based on the CLSI guidelines. Plates were incubated at 37° C. for 18 hours, and optical density was read at 600 nm. At least 3 replicates were done for each query compound.
In general terms: Dilution methods test growth across graded concentrations, often in twofold steps.

Assay [2] deals with E. coli. Description: microbe, parasite or virus in culture. It counts as cell-based, Escherichia coli. The settings on record: for MIC: Escherichia coli, 18 h, MHB in the absence of sodium bicarbonate, read-out: MIC, E. coli, MHB−.
Assay [3] deals with S. aureus. Description: microbe, parasite or virus in culture. The settings on record: for effect of 25 mM sodium bicarbonate on antibacterial activity: S. aureus, result in words; for MIC: Staphylococcus aureus, 18 h, read-out: MIC, S. aureus, MHB−.
Assay [4] relates to S. aureus. Description: Checkerboard microdilution with nigericin. It counts as cell-based, Staphylococcus aureus. An excerpt: Shown are microdilution checkerboard analyses, where the extent of inhibition is shown as a heat plot, such that the darkest checkerboard square represents full bacterial growth.
A further assay concerns P. aeruginosa. Description: Susceptibility testing of P. aeruginosa clinical isolates (n=92). The assay is classed as cell-based, Pseudomonas aeruginosa. The settings on record: P. aeruginosa (n=92); comparators in the absence of bicarbonate. As to the method:
(§5) This study included one hundred (n=100) clinical isolates of methicillin-resistant Staphylococcus aureus (MRSA) and ninety-two (n=92) clinical isolates of P. aeruginosa. All samples were collected from patients at Hamilton Health Sciences hospitals (Hamilton, Ontario, Canada). Isolates, regardless of site of infection, were selected for study if they were resistant to three or more antibiotics. The isolates were cultured on plates and subsequently tested for antimicrobial susceptibility. Initial culture and antibiotic susceptibility testing were performed by Hamilton General Hospital General Microbiology Laboratory using a VITEK 2 Automated System and its Advanced Expert System (bioMerieux) and were compliant with Clinical & Laboratory Standards Institute (CLSI) antibiotic susceptibility testing formulations. Both quantitative minimum inhibitory concentration (MIC) and CLSI breakpoints were reported for each antibiotic. Additionally, a total of 7 conjunctival-sourced ocular isolates of Streptococcus pneumoniae collected by the International Health Management Associates (IHMA) from various locations in the United States were used in the study.
(§6) Antimicrobial sensitivity of the pathogenic strains was determined in compliance with the CLSI protocol. Mueller-Hinton agar plates were used to streak out bacterial species and the direct colony suspension method for inoculum preparation was used to make a suspension of the organism in saline to the density of a McFarland 0.5 turbidity standard. Cation-adjusted Mueller-Hinton broth (CA-MHB) manufactured according to ISO technical standard was used for susceptibility testing in standard 96-well microdilution plates. All antibiotics were purchased as powders from Sigma-Aldrich Canada Co. (Oakville, Canada) and dissolved in appropriate solvent to provide stock solutions as instructed by the manufacturer. Desired test antibiotic solutions were diluted in solvent at a highest test concentration resulting in 256 μg/mL. Where sodium bicarbonate was used, aqueous sterile-filtered sodium bicarbonate solution (7.5% stock) from Sigma-Aldrich Canada Co. (Oakville, Canada) was diluted to the desired concentration in CAMHB. Plates were incubated for 18 hours at 37° C. and read at 600 nm on a Tecan, infinite M1000 PRO plate reader. In accordance with CLSI, methods with appropriate medium supplements for fastidious streptococci (2.5% lysed horse blood, Innovative Research, Inc., Novi, Mich.) were used. […] All MICs in the study were conducted in duplicate.

Assay [5] deals with methicillin-resistant Staphylococcus aureus (MRSA). Description: Susceptibility testing of MRSA clinical isolates (n=100). The assay is classed as cell-based. The settings on record: MRSA (n=100); comparators in the absence of bicarbonate. As to the method:
as §5, §6

Assay [6] deals with S. aureus. Description: Checkerboard microdilution with sodium bicarbonate against S. aureus. The assay is classed as cell-based, Staphylococcus aureus. The protocol: as §1, §2, §3, §4

For `C[C@@H]1O[C@@H]1P(=O)(O)O` [Fosfomycin], the “interaction with sodium bicarbonate (checkerboard)” value (“interaction with sodium bicarbonate” below) with E. coli [1] is recorded as “suppressed”. In the assay with E. coli [2], the “effect of 25 mM sodium bicarbonate on antibacterial activity” value (“effect of 25 mM sodium bicarbonate” for short) is recorded as “suppressed” and the MIC came to 4 mg/L. Further, in the assay on S. aureus [3], the “MIC, S. aureus, MHB+” value is recorded as 64; the “effect of 25 mM sodium bicarbonate” value is “suppressed”; the MIC worked out at 16 mg/L. Further, in the assay on S. aureus [4], the “interaction with nigericin (checkerboard)” value is on record as “antagonistic interactions”.

Regarding `COc1c(N2C[C@@H]3CCCN[C@@H]3C2)c(F)cc2c(=O)c(C(=O)O)cn(C3CC3)c12` [Moxifloxacin], the “MIC90 comparison of topical ophthalmic antibiotics” value (with P. aeruginosa; in assay [5]) was “resistance” in each case. The MIC turned out to be 0.0313 mg/L in the assay with E. coli [2] and 0.125 mg/L in the assay on S. aureus [3].

Turning to `CO[C@@H]1[C@@H](OC(N)=O)[C@@H](O)[C@H](Oc2ccc3c(O)c(NC(=O)c4ccc(O)c(CC=C(C)C)c4)c(=O)oc3c2C)OC1(C)C` [Novobiocin], the “interaction with sodium bicarbonate” value in the assay on E. coli [1] was “suppressed”. Also, in the assay on E. coli [2], the “effect of 25 mM sodium bicarbonate” value is recorded as “suppressed” and the MIC worked out at 32 mg/L. In the assay on S. aureus [3], the “MIC, S. aureus, MHB+” value was 0.5; the “effect of 25 mM sodium bicarbonate” value is reported as “suppressed”; the MIC is 0.031 mg/L. Besides, in the assay on S. aureus [4], the “interaction with nigericin (checkerboard)” value is listed as “antagonistic interactions”.

With `CC[C@H]1OC(=O)[C@H](C)[C@@H](O[C@H]2C[C@@](C)(OC)[C@@H](O)[C@H](C)O2)[C@H](C)[C@@H](O[C@@H]2O[C@H](C)C[C@H](N(C)C)[C@H]2O)[C@](C)(O)C[C@@H](C)/C(=N\OCOCCOC)[C@H](C)[C@@H](O)[C@]1(C)O` [Roxithromycin], the “interaction with sodium bicarbonate” value in the assay with E. coli [1] and in the assay with S. aureus [6] was “synergistic interactions” throughout. The “MIC, E. coli, MHB+” value in the assay with E. coli [2] is 16 μg of antimicrobial agent/mL of buffer. Moreover, the results for the MIC in the assay on E. coli [2] (antibiotic agents) and with S. aureus [3] were above 128 mg/L and 4 mg/L, respectively. In addition, the “MIC, S. aureus, MHB+” value with S. aureus [3] is on record as 0.5 μg of antimicrobial agent/mL of buffer.

The values are drawn from US11400106B2, “Methods for inhibiting microbe growth” (priority 2018, dated 2022).
